The values that follow come from article PMC7129073 (Clinical Microbiology and Infection, 2015).

In brackets after ≈: the same amount, converted by molar mass. Like-named read-outs stand apart in the source and are kept apart here.

One data set relates to MDR-MRSA. The experiment in a line: MIC, MBC. The data set is classed as cell-based, Staphylococcus aureus. The conditions noted are these: time kill, two strains.
The test system of data set [1] is MRSA. The experiment in a line: Disk diffusion. The data set is classed as cell-based, Staphylococcus aureus. Particulars: 200 isolates. For orientation: A growth-free zone around the sample is the usual read-out of agar diffusion tests.
The test system of a further data set is MSSA. Kind of data set: Agar dilution MIC. It is filed as cell-based, Staphylococcus aureus.
The subject of data set [2] is MRSA. The experiment in a line: Agar dilution MIC. It is filed as cell-based, Staphylococcus aureus. (Agar dilution tests growth on a series of plates holding different concentrations.)
The subject of data set [3] is agr+ group II S. aureus (RN6607). Kind of data set: in vitro pharmacodynamic model, MIC by E-test and microdilution. The data set is classed as cell-based. Particulars: Staphylococcus aureus, 72 h, read-out: post-exposure MIC. (In general: In broth dilution the organism is exposed to a series of concentrations in liquid medium.)
The subject of another data set is CA-MRSA. The experiment in a line: MIC, MBC. It is filed as cell-based, Staphylococcus aureus. Particulars: time kill, two strains.
Data set [4] concerns glycopeptide intermediate Staphylococcus species (GISS). Kind of data set: VITEK II, screening plate and E test, blood isolates. The data set is classed as cell-based, coagulase-negative Staphylococci. The conditions noted are these: for MIC: Staphylococcus.
The subject of data set [5] is viridans group streptococci (VgS) and Streptococcus bovis. Kind of data set: Broth microdilution and disk diffusion. The data set is classed as cell-based. The conditions noted are these: nine species.
The test system of data set [6] is Staphylococcus haemolyticus. The experiment in a line: E-test, classical method and macromethod. It is filed as cell-based.
For a further data set, the system named is E. faecium. Kind of data set: E-test susceptibility. The data set is classed as cell-based, Enterococcus faecium.
Data set [7] relates to agr− group II S. aureus (RN9120). The experiment in a line: in vitro pharmacodynamic model, MIC by E-test and microdilution. It is filed as cell-based. The conditions noted are these: Staphylococcus aureus, read-out: post-exposure MIC.
The next data set relates to enterococci. The experiment in a line: Disk diffusion and E-test, faecal isolates of cancer patients. The data set is classed as cell-based, Enterococcus. Particulars: 38 strains.
The subject of data set [8] is Staphylococci epidermidis. The experiment in a line: E-test, classical method and macromethod. The data set is classed as cell-based, Staphylococcus epidermidis. Particulars: four strains: 8, 8, 12, 12; BHI agar, 2.0 McFarland, 48 h.
The next data set has as its system S. aureus 10. Kind of data set: in vitro dynamic model, enrichment of resistant mutants. The data set is classed as cell-based.
Data set [9] deals with viridans group streptococci (VGS). The experiment in a line: MIC. The data set is classed as cell-based.
The subject of the next data set is S. pneumoniae. It is filed as cell-based, Streptococcus pneumoniae.
Data set [10] is described as follows: Mediterranean spotted fever, randomised therapeutic study. It is filed as in vivo, human.
The test system of data set [11] is Streptococcus pneumoniae (SPN). Kind of data set: MIC. It is filed as cell-based. The conditions noted are these: 8378 isolates.
Data set [12] concerns Moraxella catarrhalis (MC). Kind of data set: MIC. Particulars: 2497 isolates. It is filed as cell-based.
For a further data set, the system named is H.influenzae. The experiment in a line: PROTEKT Italy, NCCLS microdilution. The data set is classed as cell-based, Haemophilus influenzae.
A further data set relates to H. influenzae (HI). The experiment in a line: SENTRY Brazil, NCCLS broth microdilution. It is filed as cell-based, Haemophilus influenzae.
The test system of data set [13] is C. pneumoniae target genes (LcrD, YscL, YscN, IncA, IncC, TyrB, GlyA). The experiment in a line: Chlamydial gene expression. The data set is classed as cell-based, Chlamydia pneumoniae. The conditions noted are these: moxifloxacin 3.1 μg/ml, clarithromycin 2 μg/ml; peaking at 120 h.
The subject of data set [14] is Streptococcus pyogenes (SPY). Kind of data set: MIC. Particulars: 2522 isolates. The data set is classed as cell-based.
The test system of a further data set is Nocardia spp. The experiment in a line: E-test on Mueller Hinton agar, 81 clinical isolates. The data set is classed as cell-based. The conditions noted are these: Nocardia.
Data set [15] deals with S. aureus. Kind of data set: susceptibility of bloodstream isolates. The data set is classed as cell-based.
Data set [16] concerns foreign body infection Staphylococcus epidermidis strains. Kind of data set: NCCLS disk diffusion. Particulars: 86 strains. The data set is classed as cell-based.
For data set [17], the system named is S. aureus. Kind of data set: E-test susceptibility. The data set is classed as cell-based, Staphylococcus aureus.
For another data set, the system named is S. maltophilia. The experiment in a line: Susceptibility of respiratory isolates of cancer patients. It is filed as cell-based, Stenotrophomonas maltophilia. The conditions noted are these: 40 patients.
Data set [18] relates to Stenotrophomonas maltophilia. The experiment in a line: E-test, sputum isolates of children with cystic fibrosis. The data set is classed as cell-based. Particulars: 2000–2004.
For the next data set, the system named is Acinetobacter. The experiment in a line: Disk diffusion. The data set is classed as cell-based. Particulars: 37 isolates selected as resistant to beta-lactams.

A word on the MIC50: it is an inhibitory concentration at the 50% level, which refers to growth in some studies and to a panel of isolates in others. Lower therefore signals higher susceptibility. The term MIC denotes the smallest concentration in the dilution series that meets the test's criterion for growth inhibition.

`CN[C@H](CC(C)C)C(=O)N[C@H]1C(=O)N[C@@H](CC(N)=O)C(=O)N[C@H]2C(=O)N[C@H]3C(=O)N[C@H](C(=O)N[C@H](C(=O)O)c4cc(O)cc(O)c4-c4cc3ccc4O)[C@H](O)c3ccc(c(Cl)c3)Oc3cc2cc(c3O[C@@H]2O[C@H](CO)[C@@H](O)[C@H](O)[C@H]2O[C@H]2C[C@](C)(N)[C@H](O)[C@H](C)O2)Oc2ccc(cc2Cl)[C@H]1O` [vancomycin]: the results for the “Δ Log10 CFU/ml” value with MDR-MRSA and in the data set on CA-MRSA were −3.97 Log10 CFU/ml and −3.78 Log10 CFU/ml, respectively. In the data set with MRSA [1], the sensitivity result is “All isolates were sensitive”. For the same compound, the MIC50 against MSSA (Staphylococcus aureus, MSSA) was under 0.5 µg/mL; in the data set with MRSA [2] (Staphylococcus aureus, MRSA), under 1 µg/mL; in [9] it was 0.5 µg/mL (≈ 0.345 µM). In addition, the MIC90 in the data set with MSSA (Staphylococcus aureus, MSSA) was under 1 µg/mL; in the data set with MRSA [2] (Staphylococcus aureus, MRSA) it was under 1 µg/mL; in data set [9] it was 1 µg/mL (≈ 0.69 µM). Moreover, the results for the MIC range in the data set on MSSA (n = 200) and in the data set on MRSA [2] (n = 50) were 0.5 to 1 µg/mL (≈ 0.345 to 0.69 µM) and 1 µg/mL (≈ 0.69 µM), respectively. The MIC in [3] is at most 2 µg/mL; in [4] (read-out: MIC of intermediate sensitive strains) it was 8 to 12 µg/mL; in data set [4] (read-out: MIC of resistant strain), 32 µg/mL; in data set [6] (read-out: MIC, classical E-test), 3 µg/mL (≈ 2.07 µM); in data set [6] (read-out: MIC, macromethod of E-test), 32 µg/mL (≈ 22.1 µM); in data set [7] it was 6 µg/mL (≈ 4.14 µM). In addition, the “% S, range between species” value in [5] is listed as 100.0%. In addition, the Susceptibility in the data set on E. faecium (ICU) was found to be 93%; with E. faecium (non-ICU), 98%. Besides, the “% isolates resistant (VRE)” value in the data set with E. faecium (total) amounted to 4%. Further, the “sensitivity of all isolated strains” value with enterococci is “All the isolated strains were sensitive”. The “MIC, macromethod of E-test” value in data set [8] is 12 µg/mL. In the data set with S. aureus 10, the “AUC/MIC predicted to protect from selection of resistant mutants” value is 256 h. In the data set on S. aureus 10 (five-day treatment), the “AUC/MIC at which resistant mutants were selected” value lay in the range of 32 to 128 h. In [9] (83 isolates, tolerance to VA and TP), this compound yielded a tolerant isolates of 77.6%. Moreover, the “susceptibility of all isolates” value in data set [9] (NCCLS) was “All isolates were susceptible”. In the data set with S. pneumoniae, this compound gave a resistant of 0%.
Take `CC[C@H]1OC(=O)[C@H](C)[C@@H](O[C@H]2C[C@@](C)(OC)[C@@H](O)[C@H](C)O2)[C@H](C)[C@@H](O[C@@H]2O[C@H](C)C[C@H](N(C)C)[C@H]2O)[C@](C)(OC)C[C@@H](C)C(=O)[C@H](C)[C@@H](O)[C@]1(C)O` [clarithromycin]: the “adverse reactions or relapses” value in data set [10] (either group) is given as “no adverse reactions”. Also, the “time for disappearance of the fever after treatment” value in data set [10] (group A n=14, group B n=20) was found to be 2.57 ± 1.7 days. In addition, the “time to disappearance of symptoms” value in data set [10] (group A n=14, group B n=20) was 4.35 ± 2.5 days. Besides, the MIC90 in data set [11] is 0.5 ig/ml; in data set [12], 0.5 ig/ml; in [14], 0.12 ig/ml; in the data set on Nocardia spp., 96 µg/mL (≈ 128 µM). Also, the resistance in the data set on H.influenzae (year 1) turned out to be 36.9%; in the data set with H.influenzae (year 2), 25.7%. The “% S” value in the data set on H. influenzae (HI) (1998) is listed as 90%; in the data set on H. influenzae (HI) (1999), 100%; in the data set with H. influenzae (HI) (2000), 92%; with H. influenzae (HI) (2001) it was 91%; with H. influenzae (HI) (2002), 90%; in the data set on H. influenzae (HI) (2003), 94%. In data set [13], the “upregulation of mRNA of all target genes” value was “less prominent”. In the data set on Nocardia spp., this compound came in with an MIC50 of 8 µg/mL (≈ 10.7 µM).
As to `Cc1onc(-c2ccccc2)c1C(=O)N[C@@H]1C(=O)N2[C@@H]1SC(C)(C)[C@@H]2C(=O)O` [oxacillin], the resistance in the data set on S. aureus [15] was found to be 43%. Also, in data set [16], the “% resistant” value is “More than 30%”. The sensitive strains in data set [4] (six out of 73) is 8,2%. Further, the Susceptibility is given as 97% in the data set on S. aureus [17] (ICU, SRGA breakpoints, tigecycline tentative S ≤2 μg/ml) and 98% in the data set with S. aureus [17] (non-ICU). The “% isolates resistant” value in the data set with S. aureus [17] (total) stood at 2%.
As for ticarcillin/clavulanic acid, the Susceptible isolates in the data set with S. maltophilia is reported as 65%. Also, the sensitivity in data set [18] is on record as 59.3%. In the data set on Acinetobacter, this compound gave a resistant isolates of 32.4%.
